{
  "source": "patent US10336788B2",
  "about": "“Inhibition of cardiac fibrosis in myocardial infarction” (Moerae Matrix, Inc., priority 2014, dated 2019)",
  "key": {"[1]": {"tested_on": "40 non-kinase enzyme assays, including phosphatases and proteases", "assay": "Panel of 40 non-kinase enzyme assays", "type": "biochemical", "conditions": "100 μM; data not shown"}, "[2]": {"tested_on": "bleomycin-induced pulmonary fibrosis", "conditions": "Vittal et al. 2013; cited from earlier work"}, "H9C2 cells [3]": {"tested_on": "H9C2 cells", "assay": "LDH release assay in H9C2 cells (1% hypoxia or normoxia)", "type": "cell-based, rat", "conditions": "for LDH release: 1% hypoxia", "description": "H9C2 is a myoblast cell line derived from rat myocardium obtained from ATCC® (CRL-1446, ATCC, Manassas, Va.) and cultured according to the recommended protocols. Briefly, cells were maintained at 37° C. with 5% CO2 in DMEM supplemented with 10% fetal bovine serum and antibiotics (100 U/ml penicillin, […] streptomycin) and split at a ratio of 1:4 using 0.05% trypsin every 36 hours. HL-1 cells were obtained from Dr. William Claycomb and cultured according to the published protocols [Claycomb W C, Lanson N A, Jr., Stallworth B S, Egeland D B, Delcarpio J B, Bahinski A, et al. HL-1 cells: a cardiac muscle cell line that contracts and retains phenotypic characteristics of the adult cardiomyocyte. Proc. Natl Acad. Sci. USA. 1998; 95:2979-84; White S M, Constantin P E, Claycomb W C. Cardiac physiology at the cellular level: use of cultured HL-1 cardiomyocytes for studies of cardiac muscle cell structure and function. Am. J. Physiol. Heart Circul. Physiol. 2004; 286:H823-9]. […]\n(§1) Cells were rinsed in PMS and grown in DMEM (cat. #11966-025, Gibco) for 2 hours prior to initiating hypoxia (simulated ischemia). […] Three different time points were adopted for each of the three cell lines according to the severity of cell death under hypoxia determined by LDH release: for H9C2 cell line: 8 hr; 16 hr; 24 hr; for HL-1 cell line: 4 hr; 8 hr; 12 hr; for cardiac fibroblast cell line: 16 hr; 32 hr; 48 hr.\n(§2) Cell death was first determined using an LDH release assay (cat. #630117, Clontech), according to the manufacturer's instructions. […] Caspase 3/7 activity was next determined using a commercial Caspase 3/7 activity kit (Cat. #G8091, Promega, Madison, Wis. 53711) in a 384 well plate (Cat. #781903, Greiner bio-one) according to the manufacturer's instructions. […] The resulting cell lysates (25 μl, with 0.6 ug total protein) and Caspase-Glo 3/7 Reagent were added to each well in a 1:1 ratio and the luminescence was read (CLARIOstar, BMG LABTECH GmbH). […]"}, "H9C2 cells [4]": {"tested_on": "H9C2 cells", "assay": "Caspase 3/7 activity in H9C2 cells challenged with 1% hypoxia", "type": "cell-based, rat", "conditions": "100 μM, 16 and 24 hours", "description": "(§3) H9C2 is a myoblast cell line derived from rat myocardium obtained from ATCC® (CRL-1446, ATCC, Manassas, Va.) and cultured according to the recommended protocols. Briefly, cells were maintained at 37° C. with 5% CO2 in DMEM supplemented with 10% fetal bovine serum and antibiotics (100 U/ml penicillin, […] streptomycin) and split at a ratio of 1:4 using 0.05% trypsin every 36 hours. […]\nas §1, §2"}, "[5]": {"tested_on": "primary cardiac fibroblasts", "assay": "Caspase 3/7 activity in primary cardiac fibroblasts challenged with 1% hypoxia", "type": "cell-based, rat", "conditions": "100 μM, 16 and 32 hours of hypoxia", "description": "as §3, §1, §2"}, "HL1 cells": {"tested_on": "HL1 cells", "assay": "Caspase 3/7 activity in HL1 cells challenged with 1% hypoxia", "type": "cell-based, mouse", "conditions": "100 μM, 12 hours", "description": "as §3, §1, §2"}, "mouse vein graft model": {"tested_on": "mouse vein graft model", "conditions": "Muto et al. 2012; cited from earlier work"}},
  "note": "No end group written: not given here.",
  "data": [
    {"sequence": "YARAAARQARAKALARQLGVAA [MMI-0100]", "values": [
      {"measurement": "interaction at non-kinase enzyme targets (significant if greater than 50% inhibition of activity)", "setting": "[1]", "value": "No significant interaction"},
      {"measurement": "inflammation and fibrosis in bleomycin-induced pulmonary fibrosis", "setting": "[2]", "value": "inhibits inflammation and fibrosis"},
      {"measurement": "LDH release", "setting": "H9C2 cells [3]; 100 μM only, 16 hours", "value": "enhanced"},
      {"measurement": "LDH release", "setting": "H9C2 cells [3]; 20 and 100 μM, 8 hours", "value": "significantly enhanced"},
      {"measurement": "LDH release in normoxic conditions", "setting": "H9C2 cells [3]; absence of hypoxia, 8 hours", "value": "did not enhance LDH release"},
      {"measurement": "caspase 3/7 activity", "setting": "H9C2 cells [4]", "value": "inhibited"},
      {"measurement": "caspase 3/7 activity", "setting": "[5]", "value": "significantly enhanced"},
      {"measurement": "caspase 3/7 activity", "setting": "HL1 cells", "value": "inhibited"},
      {"measurement": "inflammation and fibrosis in intimal hyperplasia", "setting": "mouse vein graft model", "value": "inhibits inflammation and fibrosis"}
    ]}
  ]
}
